Key:
[1] = Excretion of radioactivity in urine following single intravenous 14C-epirubicin at 75 mg.m-2 dose in cancer patients; format: ADME, organism-based; set-up: dose 75 mg.m-2, dosed compound id 2.46808e+06, dosed compound name 14C-Epirubicin, regimen Single, sampling time 10 Day; conditions: human, in vivo, at 75 mg/m2
[2] = (§1) Excretory balance of radioactivity in faeces following intravenous 14C-epirubicin at 1 mg.Kg-1 dose in rat; format: ADME, organism-based, SD, Feces; set-up: dose 1 mg.Kg-1, dosed compound id 2.46808e+06, dosed compound name 14C-Epirubicin, route intravenous, sampling time 0-12 h; conditions: in vivo
[3] = (§2) Excretory balance of radioactivity in urine following intravenous 14C-epirubicin at 1 mg.Kg-1 dose in rat; format: ADME, organism-based, SD; set-up: dose 1 mg.Kg-1, dosed compound id 2.46808e+06, dosed compound name 14C-Epirubicin, route intravenous, sampling time 0-4 h; conditions: in vivo
[4] = as §1; format: ADME, organism-based, SD, Feces; set-up: dose 1 mg.Kg-1, dosed compound id 2.46808e+06, dosed compound name 14C-Epirubicin, route intravenous, sampling time 0-1 h; conditions: in vivo
[5] = as §2; format: ADME, organism-based, SD; set-up: dose 1 mg.Kg-1, dosed compound id 2.46808e+06, dosed compound name 14C-Epirubicin, route intravenous, sampling time 0-8 h; conditions: in vivo
[6] = (§3) Excretory balance of radioactivity in bile following intravenous 14C-epirubicin at 1 mg.Kg-1 dose in rat; format: ADME, organism-based, SD; set-up: dose 1 mg.Kg-1, dosed compound id 2.46808e+06, dosed compound name 14C-Epirubicin, route intravenous, sampling time 0-4 h; conditions: in vivo
[7] = as §2; format: ADME, organism-based, SD; set-up: dose 1 mg.Kg-1, dosed compound id 2.46808e+06, dosed compound name 14C-Epirubicin, route intravenous, sampling time 0-6 h; conditions: in vivo
[8] = as §3; format: ADME, organism-based, SD; set-up: dose 1 mg.Kg-1, dosed compound id 2.46808e+06, dosed compound name 14C-Epirubicin, route intravenous, sampling time 0-48 h; conditions: in vivo
[9] = as §2; format: ADME, organism-based, SD; set-up: dose 1 mg.Kg-1, dosed compound id 2.46808e+06, dosed compound name 14C-Epirubicin, route intravenous, sampling time 0-24 h; conditions: in vivo
[10] = (§4) Excretory balance of radioactivity in faeces following intravenous 14C-epirubicin at 0.45 ug.eq.Kg-1 dose in rat; format: ADME, organism-based, SD, Feces; set-up: dose 0.45 ug.eq.Kg-1, dosed compound id 2.46808e+06, dosed compound name 14C-Epirubicin, route intravenous, sampling time 0-48 h, study doses 0.45 ug.eq.Kg-1; conditions: in vivo
[11] = Excretion of radioactivity in faeces following single intravenous 14C-epirubicin at 75 mg.m-2 dose in cancer patients; format: ADME, organism-based, Feces; set-up: dose 75 mg.m-2, dosed compound id 2.46808e+06, dosed compound name 14C-Epirubicin, regimen Single, sampling time 10 Day; conditions: human, in vivo, at 75 mg/m2
[12] = as §4; format: ADME, organism-based, SD, Feces; set-up: dose 0.45 ug.eq.Kg-1, dosed compound id 2.46808e+06, dosed compound name 14C-Epirubicin, route intravenous, sampling time 0-8 h, study doses 0.45 ug.eq.Kg-1; conditions: in vivo
[13] = (§5) Excretory balance of radioactivity in bile following intravenous 14C-epirubicin at 0.45 ug.eq.Kg-1 dose in rat; format: ADME, organism-based, SD; set-up: dose 0.45 ug.eq.Kg-1, dosed compound id 2.46808e+06, dosed compound name 14C-Epirubicin, route intravenous, sampling time 0-1 h, study doses 0.45 ug.eq.Kg-1; conditions: in vivo
[14] = as §4; format: ADME, organism-based, SD, Feces; set-up: dose 0.45 ug.eq.Kg-1, dosed compound id 2.46808e+06, dosed compound name 14C-Epirubicin, route intravenous, sampling time 0-4 h, study doses 0.45 ug.eq.Kg-1; conditions: in vivo
[15] = as §3; format: ADME, organism-based, SD; set-up: dose 1 mg.Kg-1, dosed compound id 2.46808e+06, dosed compound name 14C-Epirubicin, route intravenous, sampling time 0-8 h; conditions: in vivo
[16] = as §2; format: ADME, organism-based, SD; set-up: dose 1 mg.Kg-1, dosed compound id 2.46808e+06, dosed compound name 14C-Epirubicin, route intravenous, sampling time 0-12 h; conditions: in vivo
[17] = as §1; format: ADME, organism-based, SD, Feces; set-up: dose 1 mg.Kg-1, dosed compound id 2.46808e+06, dosed compound name 14C-Epirubicin, route intravenous, sampling time 0-6 h; conditions: in vivo
[18] = (§6) Excretory balance of radioactivity in urine following intravenous 14C-epirubicin at 0.45 ug.eq.Kg-1 dose in rat; format: ADME, organism-based, SD; set-up: dose 0.45 ug.eq.Kg-1, dosed compound id 2.46808e+06, dosed compound name 14C-Epirubicin, route intravenous, sampling time 0-6 h, study doses 0.45 ug.eq.Kg-1; conditions: in vivo
[19] = Decrease in leukocytes observed following reference intravenous doxorubicin at 1 mg.Kg-1 per week in rat; format: toxicity, organism-based, SD, Blood; set-up: dose 1 mg.Kg-1, dosed compound id 2.46809e+06, dosed compound name Doxorubicin, dose level High, gender Mixed, regimen Once per week, route intravenous, sampling time 36 Week, study doses 0/0.3/0.6/1 mg.Kg-1; conditions: in vivo
[20] = as §5; format: ADME, organism-based, SD; set-up: dose 0.45 ug.eq.Kg-1, dosed compound id 2.46808e+06, dosed compound name 14C-Epirubicin, route intravenous, sampling time 0-6 h, study doses 0.45 ug.eq.Kg-1; conditions: in vivo
[21] = as §6; format: ADME, organism-based, SD; set-up: dose 0.45 ug.eq.Kg-1, dosed compound id 2.46808e+06, dosed compound name 14C-Epirubicin, route intravenous, sampling time 0-2 h, study doses 0.45 ug.eq.Kg-1; conditions: in vivo
[22] = as §4; format: ADME, organism-based, SD, Feces; set-up: dose 0.45 ug.eq.Kg-1, dosed compound id 2.46808e+06, dosed compound name 14C-Epirubicin, route intravenous, sampling time 0-2 h, study doses 0.45 ug.eq.Kg-1; conditions: in vivo
[23] = as §6; format: ADME, organism-based, SD; set-up: dose 0.45 ug.eq.Kg-1, dosed compound id 2.46808e+06, dosed compound name 14C-Epirubicin, route intravenous, sampling time 0-1 h, study doses 0.45 ug.eq.Kg-1; conditions: in vivo
[24] = as §5; format: ADME, organism-based, SD; set-up: dose 0.45 ug.eq.Kg-1, dosed compound id 2.46808e+06, dosed compound name 14C-Epirubicin, route intravenous, sampling time 0-4 h, study doses 0.45 ug.eq.Kg-1; conditions: in vivo
[25] = as §5; format: ADME, organism-based, SD; set-up: dose 0.45 ug.eq.Kg-1, dosed compound id 2.46808e+06, dosed compound name 14C-Epirubicin, route intravenous, sampling time 0-48 h, study doses 0.45 ug.eq.Kg-1; conditions: in vivo
[26] = as §1; format: ADME, organism-based, SD, Feces; set-up: dose 1 mg.Kg-1, dosed compound id 2.46808e+06, dosed compound name 14C-Epirubicin, route intravenous, sampling time 0-4 h; conditions: in vivo
[27] = as §5; format: ADME, organism-based, SD; set-up: dose 0.45 ug.eq.Kg-1, dosed compound id 2.46808e+06, dosed compound name 14C-Epirubicin, route intravenous, sampling time 0-8 h, study doses 0.45 ug.eq.Kg-1; conditions: in vivo
[28] = as §1; format: ADME, organism-based, SD, Feces; set-up: dose 1 mg.Kg-1, dosed compound id 2.46808e+06, dosed compound name 14C-Epirubicin, route intravenous, sampling time 0-8 h; conditions: in vivo
[29] = as §6; format: ADME, organism-based, SD; set-up: dose 0.45 ug.eq.Kg-1, dosed compound id 2.46808e+06, dosed compound name 14C-Epirubicin, route intravenous, sampling time 0-4 h, study doses 0.45 ug.eq.Kg-1; conditions: in vivo
[30] = as §1; format: ADME, organism-based, SD, Feces; set-up: dose 1 mg.Kg-1, dosed compound id 2.46808e+06, dosed compound name 14C-Epirubicin, route intravenous, sampling time 0-48 h; conditions: in vivo
[31] = as §6; format: ADME, organism-based, SD; set-up: dose 0.45 ug.eq.Kg-1, dosed compound id 2.46808e+06, dosed compound name 14C-Epirubicin, route intravenous, sampling time 0-24 h, study doses 0.45 ug.eq.Kg-1; conditions: in vivo
[32] = as §2; format: ADME, organism-based, SD; set-up: dose 1 mg.Kg-1, dosed compound id 2.46808e+06, dosed compound name 14C-Epirubicin, route intravenous, sampling time 0-1 h; conditions: in vivo
[33] = as §2; format: ADME, organism-based, SD; set-up: dose 1 mg.Kg-1, dosed compound id 2.46808e+06, dosed compound name 14C-Epirubicin, route intravenous, sampling time 0-2 h; conditions: in vivo
[34] = as §3; format: ADME, organism-based, SD; set-up: dose 1 mg.Kg-1, dosed compound id 2.46808e+06, dosed compound name 14C-Epirubicin, route intravenous, sampling time 0-24 h; conditions: in vivo
[35] = as §3; format: ADME, organism-based, SD; set-up: dose 1 mg.Kg-1, dosed compound id 2.46808e+06, dosed compound name 14C-Epirubicin, route intravenous, sampling time 0-6 h; conditions: in vivo
[36] = as §3; format: ADME, organism-based, SD; set-up: dose 1 mg.Kg-1, dosed compound id 2.46808e+06, dosed compound name 14C-Epirubicin, route intravenous, sampling time 0-2 h; conditions: in vivo
[37] = as §5; format: ADME, organism-based, SD; set-up: dose 0.45 ug.eq.Kg-1, dosed compound id 2.46808e+06, dosed compound name 14C-Epirubicin, route intravenous, sampling time 0-24 h, study doses 0.45 ug.eq.Kg-1; conditions: in vivo
[38] = as §6; format: ADME, organism-based, SD; set-up: dose 0.45 ug.eq.Kg-1, dosed compound id 2.46808e+06, dosed compound name 14C-Epirubicin, route intravenous, sampling time 0-8 h, study doses 0.45 ug.eq.Kg-1; conditions: in vivo
[39] = as §3; format: ADME, organism-based, SD; set-up: dose 1 mg.Kg-1, dosed compound id 2.46808e+06, dosed compound name 14C-Epirubicin, route intravenous, sampling time 0-1 h; conditions: in vivo
[40] = as §4; format: ADME, organism-based, SD, Feces; set-up: dose 0.45 ug.eq.Kg-1, dosed compound id 2.46808e+06, dosed compound name 14C-Epirubicin, route intravenous, sampling time 0-6 h, study doses 0.45 ug.eq.Kg-1; conditions: in vivo
[41] = as §3; format: ADME, organism-based, SD; set-up: dose 1 mg.Kg-1, dosed compound id 2.46808e+06, dosed compound name 14C-Epirubicin, route intravenous, sampling time 0-12 h; conditions: in vivo
[42] = as §5; format: ADME, organism-based, SD; set-up: dose 0.45 ug.eq.Kg-1, dosed compound id 2.46808e+06, dosed compound name 14C-Epirubicin, route intravenous, sampling time 0-2 h, study doses 0.45 ug.eq.Kg-1; conditions: in vivo
[43] = as §4; format: ADME, organism-based, SD, Feces; set-up: dose 0.45 ug.eq.Kg-1, dosed compound id 2.46808e+06, dosed compound name 14C-Epirubicin, route intravenous, sampling time 0-24 h, study doses 0.45 ug.eq.Kg-1; conditions: in vivo
[44] = as §4; format: ADME, organism-based, SD, Feces; set-up: dose 0.45 ug.eq.Kg-1, dosed compound id 2.46808e+06, dosed compound name 14C-Epirubicin, route intravenous, sampling time 0-1 h, study doses 0.45 ug.eq.Kg-1; conditions: in vivo
[45] = as §2; format: ADME, organism-based, SD; set-up: dose 1 mg.Kg-1, dosed compound id 2.46808e+06, dosed compound name 14C-Epirubicin, route intravenous, sampling time 0-48 h; conditions: in vivo
[46] = as §1; format: ADME, organism-based, SD, Feces; set-up: dose 1 mg.Kg-1, dosed compound id 2.46808e+06, dosed compound name 14C-Epirubicin, route intravenous, sampling time 0-2 h; conditions: in vivo

## COc1cccc2c1C(=O)c1c(O)c3c(c(O)c1C2=O)C[C@@](O)(C(=O)CO)C[C@@H]3O[C@H]1C[C@H](N)[C@@H](O)[C@H](C)O1 [EPIRUBICIN]
[1]
  Radiolabel recovery: 16%
[2]
  Radiolabel recovery: 1.77%
[3]
  Radiolabel recovery: OUTCOME = Observed
[4]
  Radiolabel recovery: OUTCOME = Observed
[5]
  Radiolabel recovery: OUTCOME = Observed
[6]
  Radiolabel recovery: 22.93%
[7]
  Radiolabel recovery: 7.31%
[8]
  Radiolabel recovery: 47.72%
[9]
  Radiolabel recovery: 12%
[10]
  Radiolabel recovery: 48.78%
[11]
  Radiolabel recovery: 24%
[12]
  Radiolabel recovery: OUTCOME = Not detectable
[13]
  Radiolabel recovery: 0.06%
[14]
  Radiolabel recovery: OUTCOME = Observed
[15]
  Radiolabel recovery: 28.39%
[16]
  Radiolabel recovery: 8.56%
[17]
  Radiolabel recovery: 1.18%
[18]
  Radiolabel recovery: OUTCOME = Observed
[19]
  WBC_CHANGE: 45%
[20]
  Radiolabel recovery: 5.17%
[21]
  Radiolabel recovery: OUTCOME = Observed
[22]
  Radiolabel recovery: OUTCOME = Observed
[23]
  Radiolabel recovery: OUTCOME = Observed
[24]
  Radiolabel recovery: 2.01%
[25]
  Radiolabel recovery: 17.32%
[26]
  Radiolabel recovery: OUTCOME = Observed
[27]
  Radiolabel recovery: 7.05%
[28]
  Radiolabel recovery: OUTCOME = Observed
[29]
  Radiolabel recovery: OUTCOME = Observed
[30]
  Radiolabel recovery: 4.44%
[31]
  Radiolabel recovery: 2.14%
[32]
  Radiolabel recovery: OUTCOME = Observed
[33]
  Radiolabel recovery: OUTCOME = Observed
[34]
  Radiolabel recovery: 38.44%
[35]
  Radiolabel recovery: 25.25%
[36]
  Radiolabel recovery: 18.13%
[37]
  Radiolabel recovery: 14.72%
[38]
  Radiolabel recovery: 0.54%
[39]
  Radiolabel recovery: 13.22%
[40]
  Radiolabel recovery: OUTCOME = Observed
[41]
  Radiolabel recovery: 30.19%
[42]
  Radiolabel recovery: 0.27%
[43]
  Radiolabel recovery: 26%
[44]
  Radiolabel recovery: OUTCOME = Observed
[45]
  Radiolabel recovery: 14.74%
[46]
  Radiolabel recovery: OUTCOME = Observed
